Format in all cases: in vivo
Experiment [1] concerns Solanum nigrum (SOLNI). Nature of the experiment: Post-emergence herbicidal glasshouse test. Conditions: post-emergence (sprayed after 8 days cultivation), evaluated after 13 days, 100=total damage to plant, 0=no damage to plant; for pest or weed control at 1000 g/ha: Solanum nigrum, 312 h, read-out: POST Application SOLNI, damage to plant; for POST Application SOLNI, damage to plant: 1000 g/ha. The method, then: (§1) Seeds of a variety of test species were sown in standard soil in pots (Alopecurus myosuroides (ALOMY), Setaria faberi (SETFA), Echinochloa crus-galli (ECHCG), Solanum nigrum (SOLNI) and Amaranthus retoflexus (AMARE)). After cultivation for one day (pre-emergence) or after 8 days cultivation (post-emergence) under controlled conditions in a glasshouse (at 24/16° C., day/night; 14 hours light; 65% humidity), the plants were sprayed with an aqueous spray solution derived from the formulation of the technical active ingredient in acetone/water (50:50) solution containing 0.5% Tween 20 (polyoxyethelyene sorbitan monolaurate, CAS RN 9005-64-5). Compounds were applied at 1000 g/ha. The test plants were then grown in a glasshouse under controlled conditions in a glasshouse (at 24/16° C., day/night; 14 hours light; 65% humidity) and watered twice daily. After 13 days for pre and post-emergence, the test was evaluated (100=total damage to plant; 0=no damage to plant).

In experiment [2] the test system is Echinochloa crus-galli (ECHCG). In words: Post-emergence herbicidal glasshouse test. Conditions: post-emergence (sprayed after 8 days cultivation), evaluated after 13 days, 100=total damage to plant, 0=no damage to plant; for pest or weed control at 1000 g/ha: Echinochloa crus-galli, 312 h, read-out: POST Application ECHCG, damage to plant; for POST Application ECHCG, damage to plant: 1000 g/ha. The method, then:
as §1

The subject of experiment [3] is Setaria faberi (SETFA). In words: Post-emergence herbicidal glasshouse test. Conditions: post-emergence (sprayed after 8 days cultivation), evaluated after 13 days, 100=total damage to plant, 0=no damage to plant; for pest or weed control at 1000 g/ha: Setaria faberi, 312 h, read-out: POST Application SETFA, damage to plant; for POST Application SETFA, damage to plant: 1000 g/ha. As for the experimental part: as §1

The test system of experiment [4] is Amaranthus retoflexus (AMARE). In words: Post-emergence herbicidal glasshouse test. The conditions noted are these: post-emergence (sprayed after 8 days cultivation), evaluated after 13 days, 100=total damage to plant, 0=no damage to plant; for pest or weed control at 1000 g/ha: Amaranthus retroflexus, 312 h, read-out: POST Application AMARE, damage to plant; for POST Application AMARE, damage to plant: 1000 g/ha. The method, then: as §1

Experiment [5] deals with Alopecurus myosuroides (ALOMY). In words: Post-emergence herbicidal glasshouse test. Conditions: post-emergence (sprayed after 8 days cultivation), evaluated after 13 days, 100=total damage to plant, 0=no damage to plant; for pest or weed control at 1000 g/ha: Alopecurus myosuroides, 312 h, read-out: POST Application ALOMY, damage to plant; for POST Application ALOMY, damage to plant: 1000 g/ha. The method, then:
as §1

Experiment [6] relates to Solanum nigrum (SOLNI). Nature of the experiment: Pre-emergence herbicidal glasshouse test. Conditions: pre-emergence (sprayed after one day cultivation), evaluated after 13 days, 100=total damage to plant, 0=no damage to plant; for pest or weed control at 1000 g/ha: Solanum nigrum, 312 h, read-out: PRE Application SOLNI, damage to plant; for PRE Application SOLNI, damage to plant: 1000 g/ha. The method, then:
as §1

The subject of experiment [7] is Echinochloa crus-galli (ECHCG). In words: Pre-emergence herbicidal glasshouse test. Conditions: pre-emergence (sprayed after one day cultivation), evaluated after 13 days, 100=total damage to plant, 0=no damage to plant; for pest or weed control at 1000 g/ha: Echinochloa crus-galli, 312 h, read-out: PRE Application ECHCG, damage to plant; for PRE Application ECHCG, damage to plant: 1000 g/ha. As for the experimental part:
as §1

For experiment [8], the system named is Setaria faberi (SETFA). Nature of the experiment: Pre-emergence herbicidal glasshouse test. The conditions noted are these: pre-emergence (sprayed after one day cultivation), evaluated after 13 days, 100=total damage to plant, 0=no damage to plant; for pest or weed control at 1000 g/ha: Setaria faberi, 312 h, read-out: PRE Application SETFA, damage to plant; for PRE Application SETFA, damage to plant: 1000 g/ha. The method, then:
as §1

In experiment [9] the test system is Amaranthus retoflexus (AMARE). In words: Pre-emergence herbicidal glasshouse test. The conditions noted are these: pre-emergence (sprayed after one day cultivation), evaluated after 13 days, 100=total damage to plant, 0=no damage to plant; for pest or weed control at 1000 g/ha: Amaranthus retroflexus, 312 h, read-out: PRE Application AMARE, damage to plant; for PRE Application AMARE, damage to plant: 1000 g/ha. The method, then: as §1

The test system of experiment [10] is Alopecurus myosuroides (ALOMY). In words: Pre-emergence herbicidal glasshouse test. Conditions: pre-emergence (sprayed after one day cultivation), evaluated after 13 days, 100=total damage to plant, 0=no damage to plant; for pest or weed control at 1000 g/ha: Alopecurus myosuroides, 312 h, read-out: PRE Application ALOMY, damage to plant; for PRE Application ALOMY, damage to plant: 1000 g/ha. As for the experimental part: as §1

`O=C1CCCC(=O)C1C(=O)c1cc2ccc(O)nc2nc1C(F)(F)F` [Compound 1.21, 2-(7-hydroxy-2-trifluoromethyl-[1,8]-naphthyridine-3-carbony)-cyclohexane-1,3-dione]: the pest or weed control at 1000 g/ha in [1], in experiment [2], in experiment [3], in experiment [4], in [5] and in experiment [6] was 100% throughout. Further, the pest or weed control at 1000 g/ha in experiment [7] came to 100%; in [8], 100%; in experiment [9] it was 100%; in experiment [10] it was 80%.

For `CCOCCn1c(=O)ccc2cc(C(=O)C3C(=O)CCCC3=O)c(C(F)(F)F)nc21` [Compound 2.16, 2-{8-(2-ethoxyethyl)-7-oxo-7,8-dihydro-2-trifluoromethyl-[1,8]-naphthyridine-3-carbony}-cyclohexane-1,3-dione], the “POST Application SOLNI, damage to plant” value in experiment [1] is on record as 90. Also, in experiment [2], the “POST Application ECHCG, damage to plant” value is 90. Besides, the “POST Application SETFA, damage to plant” value in experiment [3] was determined as 90. The “POST Application AMARE, damage to plant” value in experiment [4] is given as 70. Moreover, the “POST Application ALOMY, damage to plant” value in experiment [5] amounted to 90. For the same compound, in [6], the “PRE Application SOLNI, damage to plant” value is 90. Also, the “PRE Application ECHCG, damage to plant” value in experiment [7] worked out at 90. Moreover, the “PRE Application SETFA, damage to plant” value in experiment [8] turned out to be 90. In addition, in experiment [9], the “PRE Application AMARE, damage to plant” value is listed as 90. For the same compound, the “PRE Application ALOMY, damage to plant” value in [10] was 60.

As for `O=C1CCCC(=O)C1C(=O)c1cc2ccc(CF)nc2nc1C(F)(F)F` [Compound 1.11], the pest or weed control at 1000 g/ha was determined as 100% in experiment [1]; 90% in [2]; 90% in experiment [3]; 100% in experiment [4]; 70% in experiment [5]; 100% in [6]. For the same compound, the pest or weed control at 1000 g/ha in experiment [7] came to 100%; in [8] it was 100%; in [9], 80%; in experiment [10], 60%.

`O=C1CCCC(=O)C1C(=O)c1cc2cc(F)c(-c3ccsc3)nc2nc1C(F)(F)F` [Compound 1.71]: the “POST Application SOLNI, damage to plant” value in experiment [1] is listed as 70. Besides, the “POST Application ECHCG, damage to plant” value in experiment [2] is 80. In experiment [3], the “POST Application SETFA, damage to plant” value came out at 80. Besides, in experiment [4], the “POST Application AMARE, damage to plant” value worked out at 100. In addition, the “POST Application ALOMY, damage to plant” value in [5] stood at 30. The “PRE Application SOLNI, damage to plant” value in [6] was found to be 70. Further, the “PRE Application ECHCG, damage to plant” value in experiment [7] amounted to 90. Further, the “PRE Application SETFA, damage to plant” value in [8] is given as 70. In addition, in [9], the “PRE Application AMARE, damage to plant” value was 0. The “PRE Application ALOMY, damage to plant” value in experiment [10] stood at 10.

On to `O=C(c1cc2ccc(CCF)nc2nc1C(F)(F)F)C1C(=O)C2CCC(C2)C1=O` (stereo not shown) [Compound 3.10], for which the “POST Application SOLNI, damage to plant” value in experiment [1] amounted to 90. In [2], the “POST Application ECHCG, damage to plant” value was found to be 90. Moreover, in experiment [3], the “POST Application SETFA, damage to plant” value is reported as 90. Moreover, the “POST Application AMARE, damage to plant” value in experiment [4] worked out at 100. Further, the “POST Application ALOMY, damage to plant” value in [5] is 80. Moreover, the “PRE Application SOLNI, damage to plant” value in [6] was found to be 100. Moreover, the “PRE Application ECHCG, damage to plant” value in [7] came to 100. Further, the “PRE Application SETFA, damage to plant” value in experiment [8] came to 90. The “PRE Application AMARE, damage to plant” value in [9] was 70. Moreover, the “PRE Application ALOMY, damage to plant” value in experiment [10] stood at 70.

Turning to `O=C1CCCC(=O)C1C(=O)c1cc2ccc(Oc3ccccc3)nc2nc1C(F)(F)F` [Compound 1.17, 2-(7-phenoxy-2-trifluoromethyl-[1,8]-naphthyridine-3-carbonyl)-cyclohexane-1,3-dione], the pest or weed control at 1000 g/ha in experiment [1] was found to be 100%; in experiment [2] it was 90%; in experiment [3] it was 100%; in experiment [4], 70%; in [5], 90%; in [6], 100%. For the same compound, the pest or weed control at 1000 g/ha in experiment [7], in experiment [8], in [9] and in experiment [10] was 100% each time.

Consider `CC(CF)c1ccc2cc(C(=O)C3C(=O)C4CCC(C4)C3=O)c(C(F)(F)F)nc2n1` (stereo not shown) [Compound 3.11], for which the “POST Application SOLNI, damage to plant” value in [1] stood at 90. Moreover, the “POST Application ECHCG, damage to plant” value in [2] is recorded as 80. Further, in experiment [3], the “POST Application SETFA, damage to plant” value was 90. For the same compound, the “POST Application AMARE, damage to plant” value in experiment [4] worked out at 100. Besides, the “POST Application ALOMY, damage to plant” value in [5] was 70. The “PRE Application SOLNI, damage to plant” value in experiment [6] was determined as 100. In addition, the “PRE Application ECHCG, damage to plant” value in experiment [7] is listed as 100. Further, the “PRE Application SETFA, damage to plant” value in experiment [8] is on record as 90. Also, the “PRE Application AMARE, damage to plant” value in experiment [9] is given as 100. The “PRE Application ALOMY, damage to plant” value in experiment [10] is 70.

As for `Cc1nc2nc(C(F)(F)F)c(C(=O)C3C(=O)CCCC3=O)cc2cc1F` [Compound 1.41, 2-[6-fluoro-7-methyl-2-trifluoromethyl-[1,8]-naphthyridine-3-carbony]-cyclohexane-1,3-dione], the pest or weed control at 1000 g/ha in experiment [1] is 90%; in experiment [2], 90%; in experiment [3], 100%; in [4], 100%; in [5] it was 90%; in [6], 100%. For the same compound, the pest or weed control at 1000 g/ha was 100% in [7], 100% in experiment [8], 100% in experiment [9] and 90% in experiment [10].

In the case of `Cc1nc2nc(C(F)(F)F)c(C(=O)C3=C(OC(=O)C(C)C)CCCC3=O)cc2cc1F` [Compound 4.21, Isobutyric acid 2-(6-fluoro-7-methyl-2-trifluoromethyl-[1,8]-naphthyridine-3-carbonyl)-3-oxo-cyclohex-1-enyl ester], the pest or weed control at 1000 g/ha worked out at 80% in experiment [1]; 80% in [2]; 80% in experiment [3]; 90% in [4]; 80% in [5]; 100% in [6]. For the same compound, the pest or weed control at 1000 g/ha in experiment [7] stood at 100%; in experiment [8], 100%; in experiment [9], 100%; in experiment [10] it was 80%.

For the compound `CC(C)n1c(=O)ccc2cc(C(=O)C3C(=O)CCCC3=O)c(C(F)(F)F)nc21` [Compound 2.10, 2-{8-isopropyl-7-oxo-7,8-dihydro-2-trifluoromethyl-[1,8]-naphthyridine-3-carbony}-cyclohexane-1,3-dione], the pest or weed control at 1000 g/ha in experiment [1] is 100%; in experiment [2], 90%; in experiment [3], 90%; in experiment [4] it was 100%; in experiment [5], 80%; in experiment [6], 90%. Besides, the pest or weed control at 1000 g/ha in experiment [7] stood at 90%; in experiment [8] it was 80%; in experiment [9] it was 80%; in [10], 50%.

The values are drawn from patent US8461083B2, “Herbicidal compounds” (Syngenta Limited, priority 2008, dated 2013).
